In the supplement of paper PMC10307832:

Compound: N[C@@H]1CCCN(c2c(/C=C3\SC(=O)NC3=O)cccc2-c2ccccc2)C1 [AZD1208] + CCNC(=O)c1noc(-c2cc(C(C)C)c(O)cc2O)c1-c1ccc(CN2CCOCC2)cc1 [Luminespib] (partner 0.01 µM)
Assay: relative viability (nuclei count vs DMSO), 5 days (fraction); higher = more cells survive
Conditions: first compound 0.08 µM
Method in brief: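 Nuclei were stained with Hoechst during a one-step fixation (final 0.05% Triton X-100, 1% formaldehyde, 1 ug/ml Hoechst) carried out 5 days after dosing, then counted on 4× images. The cells, lung cancer lines in 1536-well plates, had been dosed by pin tool the day after seeding with one drug alone or a fixed anchor-drug dose plus five library-drug doses (not always all listed) in √10 steps. Relative viability is the nuclei count in treated wells divided by that in vehicle wells, and each value is the median of duplicate plates.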

Cell Line	relative viability
NCI-H441	0.393
LCLC-97TM1	0.829
NCI-H2023	0.677
A-427	0.788
NCI-H460	0.0309
NCI-H727	0.362
NCI-H1734	0.18
NCI-H520	0.253
NCI-H2405	0.652
SW 1573	0.292
NCI-H1395	0.705
201T	1.07
NCI-H1915	0.768
HCC-827	0.735
LXF-289	0.601
NCI-H2347	0.416
NCI-H650	0.865
CAL-12T	0.363
NCI-H1651	0.902
EPLC-272H	0.276
NCI-H23	0.238
NCI-H1792	0.407
NCI-H1355	0.708
NCI-H322M	0.784
NCI-H1437	1.13
NCI-H1755	0.357
NCI-H2085	0.439
HCC-15	0.359

Same assay, conditions: first compound 0.253 µM

Cell Line	relative viability
NCI-H441	0.331
LCLC-97TM1	0.754
NCI-H2023	0.75
A-427	1
NCI-H460	0.0217
NCI-H727	0.384
NCI-H1734	0.197
NCI-H520	0.246
NCI-H2405	0.464
SW 1573	0.429
NCI-H1395	0.784
201T	1.02
NCI-H1915	0.811
HCC-827	0.677
LXF-289	0.584
NCI-H2347	0.625
NCI-H650	0.768
CAL-12T	0.527
NCI-H1651	0.977
EPLC-272H	0.557
NCI-H23	0.218
NCI-H1792	0.437
NCI-H1355	0.598
NCI-H322M	0.767
NCI-H1437	1.17
NCI-H1755	0.282
NCI-H2085	0.388
HCC-15	0.235

Same assay, conditions: first compound 0.8 µM

Cell Line	relative viability
NCI-H441	0.26
LCLC-97TM1	0.604
NCI-H2023	0.588
A-427	0.829
NCI-H460	0.0281
NCI-H727	0.431
NCI-H1734	0.187
NCI-H520	0.212
NCI-H2405	0.47
SW 1573	0.198
NCI-H1395	0.608
201T	0.961
NCI-H1915	0.709
HCC-827	0.307
LXF-289	0.659
NCI-H2347	0.415
NCI-H650	0.789
CAL-12T	0.185
NCI-H1651	0.848
EPLC-272H	0.288
NCI-H1792	0.358
NCI-H1355	0.611
NCI-H322M	0.794
NCI-H1437	1.2
NCI-H1755	0.494
NCI-H2085	0.427
HCC-15	0.319

Same assay, conditions: first compound 2.53 µM

Cell Line	relative viability
NCI-H441	0.342
LCLC-97TM1	0.632
NCI-H2023	0.597
A-427	0.762
NCI-H460	0.0375
NCI-H727	0.42
NCI-H1734	0.159
NCI-H520	0.201
NCI-H2405	0.455
SW 1573	0.152
NCI-H1395	0.539
201T	1.12
NCI-H1915	0.677
HCC-827	0.373
LXF-289	0.607
NCI-H2347	0.371
NCI-H650	0.757
CAL-12T	0.434
NCI-H1651	0.795
EPLC-272H	0.219
NCI-H23	0.202
NCI-H1792	0.394
NCI-H1355	0.699
NCI-H322M	0.803
NCI-H1437	1.24
NCI-H1755	0.565
NCI-H2085	0.461
HCC-15	0.431

Same assay, conditions: first compound 8 µM

Cell Line	relative viability
NCI-H441	0.265
LCLC-97TM1	0.727
NCI-H2023	0.416
A-427	0.712
NCI-H460	0.0205
NCI-H727	0.458
NCI-H1734	0.168
NCI-H520	0.207
NCI-H2405	0.517
SW 1573	0.208
NCI-H1395	0.553
201T	0.98
NCI-H1915	0.678
HCC-827	0.408
LXF-289	0.527
NCI-H2347	0.306
NCI-H650	0.819
CAL-12T	0.258
NCI-H1651	0.568
EPLC-272H	0.215
